Twelve molecules from US20240391896A1 (Nantong Jutai Biotech Co., Ltd., priority 2021, published 2024) can be followed below.

The target of one assay is T1, BCL9/β-catenin (Homo sapiens, UniProt P35222).
T1 sequence (P35222 1-781): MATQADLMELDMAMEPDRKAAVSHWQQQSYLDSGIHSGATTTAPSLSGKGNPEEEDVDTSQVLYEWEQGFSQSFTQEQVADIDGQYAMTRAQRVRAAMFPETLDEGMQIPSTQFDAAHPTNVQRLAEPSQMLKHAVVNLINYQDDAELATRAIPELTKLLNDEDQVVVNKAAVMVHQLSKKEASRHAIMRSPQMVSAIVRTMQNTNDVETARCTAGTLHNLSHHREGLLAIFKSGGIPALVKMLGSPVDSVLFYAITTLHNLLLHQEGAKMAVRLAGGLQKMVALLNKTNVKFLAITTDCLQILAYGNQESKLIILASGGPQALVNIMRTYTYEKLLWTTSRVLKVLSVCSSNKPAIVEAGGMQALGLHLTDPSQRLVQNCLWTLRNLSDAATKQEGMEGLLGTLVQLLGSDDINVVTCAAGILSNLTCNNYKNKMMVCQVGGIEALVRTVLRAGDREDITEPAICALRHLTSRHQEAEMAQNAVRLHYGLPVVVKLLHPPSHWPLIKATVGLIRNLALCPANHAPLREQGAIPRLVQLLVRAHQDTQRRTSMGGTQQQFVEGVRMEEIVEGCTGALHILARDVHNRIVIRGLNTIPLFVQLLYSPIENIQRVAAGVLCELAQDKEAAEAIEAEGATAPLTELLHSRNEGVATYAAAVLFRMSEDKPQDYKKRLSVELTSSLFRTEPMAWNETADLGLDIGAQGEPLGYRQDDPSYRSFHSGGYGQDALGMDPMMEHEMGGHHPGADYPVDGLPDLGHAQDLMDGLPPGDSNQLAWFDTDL
In words: FP (BCL-9 avidity) fluorescence polarization competition assay with beta-catenin and FAP-Bcl9 tracer. The assay is classed as binding. Here is the method:
Incubating for 2 hours on a horizontal shaker. Then adding 2 nM FAP-Bcl9 tracer to each well, and after incubation for 2H on a horizontal shaker, measuring the […].

For another assay, the system named is HCT116 cells. As to the kind of experiment: CCK8 cell viability assay in HCT116 cells. In kind it is cell-based. Particulars: Homo sapiens, HCT-116; Table 2, HCT116 cells, 24 hours. Here is the method:
• 1. HCT116 cell plating
Digesting, counting, and plating the cells in 96-well plates (flat bottom, transparent) with 10,000 cells/100 ul DMEM (10% FBS) per well; • 2. Observing the state of cells on the next day, and start dosing after cell attachment is intact; • 3. diluting 514 with DMEM (2% FBS) by gradient dilution with concentrations of 20 μM, 10 μM, 5 μM, 2.5 μM, 1.25 μM, 0.625 μM, 0.3125 μM, 0.15625 μM, 0 μM (equal volume of DMSO); • 4. Adding 100 μl of the above different concentrations of 514 to each well, and making two repeat wells for each concentration gradient; leaving three blank wells (only adding DMEM 2% FBS culture medium without cells). • 5. Culturing at 37° C. for 24 hours; • 6. Adding 10 μl CCK-8 enhanced solution to each well: due to the small amount added of CCK-8 in each well, it may cause errors resulting from the reagent staining on the wall of the well. It is recommended to gently tap the culture plate after adding the reagent to help mixing; • 7. Incubating in the incubator for 0.5-4 hours: the amount of Formazan formed is not the same for different cell types, in most cases, incubation for 1 hour is enough. If the color development is not enough, incubation can be continued to determine optimal conditions. • 8. Measuring the absorbance at 450 nm and 600 nm (excluding the interference of the background color of the reagent and the absorbance value of the well plate itself); • 9. Using OD450 nm-OD600 nm for the final absorbance, and calculating the inhibition rate:
[formula] • As: absorbance of experimental wells (medium containing cells, CCK-8, drug to be tested); • Ac: absorbance of control wells (medium containing cells, CCK-8, and no drug to be tested); • Ab: absorbance of blank wells (medium without cells and drug to be tested, CCK-8). (3) qPCR • 1. HCT116 cell plating

For a further assay, the system named is Human AXIN2. In words: qPCR of AXIN2 expression in HCT116 cells. The assay is classed as cell-based. Particulars: HCT-116, Table 2, HCT116 cells, AXIN2 vs β-actin, 24 hours. Here is the method: Cells were digesting, counting, and plating cells in 24-well plates (flat bottom, clear), with 3×10^5 cells/500 ul DMEM (10% FBS) per well. • 2. Observing the state of cells on the next day, and start dosing after cell attachment is intact
Diluting 514 with DMEM (2% FBS) by gradient dilution with concentrations of 20 μM, 10 μM, 5 μM, 2.5 μM, 1.25 μM, 0.625 μM, 0.3125 μM, 0.15625 μM, 0 μM (equal volume DMSO)
Adding 500 μl of the above different concentrations of 514 to each well, and setting a single well for each concentration gradient except three repeat wells for the 0 μM concentration (double wells for qPCR). • 3. Incubating at 37° C. for 24 hours • 4. Discarding the supernatant, washing once with PBS, and adding trizol at 500/well • 5. RNA extraction (step omitted) • 6. Reverse transcription (step omitted, according to the kit) • 7. qPCR (step omitted, following the kit steps)
• 8. calculation of inhibition rate
On the technique in general: Real-time PCR tracks product formation cycle by cycle.

Setting [1] is: Table 1.1, compounds 1-6, read-out: BCL-9 avidity FP IC50.
[2] abbreviates: Table 2, FP (BCL-9 affinity), read-out: FP.
Setting [3] is: Table 1.2, compounds 7-16, read-out: BCL-9 avidity FP IC50.

Read-outs that look alike come from different tables or passages of the source. Where only a bound is given, the exact number is not on record here.

Take `CC(C)(Oc1cccc(N2CC(C(=O)N(Cc3ccc(-c4c[nH]c5ncccc45)cc3)C3CC3)CC(c3ccccc3)C2)c1)C(=O)N1CCNCC1` (racemic) [Compound 3, N-cyclopropyl-1-(3-{[2-methyl-1-oxo-1-(piperazin-1-yl)propan-2-yl]oxy}phenyl)-5-phenyl-N-[(4-{1H-pyrrolo[2,3-b]pyridin-3-yl}phenyl)methyl]piperidine-3-carboxamide]: the IC50 at BCL9/β-catenin (setting [1]) was 2.76 µM; at BCL9/β-catenin (setting [2]), 2.76 µM; with HCT116 cells it was 10 to 20 µM; with Human AXIN2, 10 to 20 µM.
`CC(C)C1CC=C(c2ccc(CN(C(=O)C3CC(c4ccccc4)CN(c4cccc(OC(C)(C)C(=O)N5CCNCC5)c4)C3)C3CC3)cc2)CC1` (racemic) [Compound 4, N-cyclopropyl-1-(3-{[2-methyl-1-oxo-1-(piperazin-1-yl)propan-2-yl]oxy}phenyl)-5-phenyl-N-({4-[4-(propan-2-yl)cyclohex-1-en-1-yl]phenyl}methyl)piperidine-3-carboxamide]: the IC50 on BCL9/β-catenin (setting [2]), in the assay with HCT116 cells and in the assay on Human AXIN2 was 10 to 50 µM in each case.
Take `CC(C)(Oc1cccc(N2CC(C(=O)N(Cc3ccc(-c4ccccc4)cc3)C3CC3)CC(c3ccccc3)C2)c1)C(=O)N1CCNCC1` (racemic) [Compound 5, N-cyclopropyl-1-(3-{[2-methyl-1-oxo-1-(piperazin-1-yl)propan-2-yl]oxy}phenyl)-5-phenyl-N-[(4-phenylphenyl)methyl]piperidine-3-carboxamide]: the IC50 on BCL9/β-catenin (setting [1]) is 2.25 µM; at BCL9/β-catenin (setting [2]), 6.2 µM; in the assay on HCT116 cells, 10 to 20 µM; in the assay with Human AXIN2, 10 to 20 µM.
For the molecule `CC(C)(Oc1cccc(N2CC(C(=O)N(Cc3ccc(C4=CCCCC4)cc3)C3CC3)CC(c3ccccc3)C2)c1)C(=O)N1CCNCC1` (racemic) [Compound 6, N-{[4-(cyclohex-1-en-1-yl)phenyl]methyl}-N-cyclopropyl-1-(3-{[2-methyl-1-oxo-1-(piperazin-1-yl)propan-2-yl]oxy}phenyl)-5-phenylpiperidine-3-carboxamide], the IC50 on BCL9/β-catenin (setting [1]) is 7.75 µM; at BCL9/β-catenin (setting [2]), 7.75 µM; in the assay on HCT116 cells it was 10 to 20 µM; with Human AXIN2, 10 to 20 µM.
Consider `CC(C)(Oc1cccc(N2CC(C(=O)N(Cc3ccc(-c4cn[nH]c4)cc3)C3CC3)CC(C3CCCCC3)C2)c1)C(=O)N1CCNCC1` (stereo not shown) [Compound 1, 5-cyclohexyl-N-cyclopropyl-1-(3-{[2-methyl-1-oxo-1-(piperazin-1-yl)propan-2-yl]oxy}phenyl)-N-{[4-(1H-pyrazol-4-yl)phenyl]methyl}piperidine-3-carboxamide], for which the IC50 is more than 10 µM on BCL9/β-catenin (setting [1]), 10 to 50 µM on BCL9/β-catenin (setting [2]), 10 to 50 µM with HCT116 cells and 10 to 50 µM in the assay with Human AXIN2.
Consider `CC(C)(Oc1cccc(N2CC(C(=O)N(Cc3ccc(-c4cn[nH]c4)cc3)C3CC3)CC(c3ccccc3)C2)c1)C(=O)N1CCNCC1` (stereo not shown) [Compound 2, N-cyclopropyl-1-(3-{[2-methyl-1-oxo-1-(piperazin-1-yl)propan-2-yl]oxy}phenyl)-5-phenyl-N-{[4-(1H-pyrazol-4-yl)phenyl]methyl}piperidine-3-carboxamide], for which the IC50 was more than 10 µM on BCL9/β-catenin (setting [1]), 10 to 50 µM at BCL9/β-catenin (setting [2]), 10 to 50 µM in the assay on HCT116 cells and 10 to 20 µM in the assay on Human AXIN2.
Consider `CC(C)(Oc1cccc(N2CCC[C@@H](C(=O)N(Cc3ccc(-c4c[nH]c5ncccc45)cc3)C3CC3)C2)c1Cl)C(=O)N1CCNCC1` [Compound 8, (3R)-1-(2-chloro-3-{[2-methyl-1-oxo-1-(piperazin-1-yl)propan-2-yl]oxy}phenyl)-N-cyclopropyl-N-[(4-{1H-pyrrolo[2,3-b]pyridin-3-yl}phenyl)methyl]piperidine-3-carboxamide], for which the IC50 is more than 10 µM on BCL9/β-catenin (setting [3]), 10 to 50 µM at BCL9/β-catenin (setting [2]), 10 to 20 µM with HCT116 cells and 10 to 50 µM in the assay with Human AXIN2.
With `CC(C)(Oc1ccc(Cl)c(N2CCC[C@@H](C(=O)N(Cc3ccc(-c4cn[nH]c4)cc3)C3CC3)C2)c1)C(=O)N1CCNCC1` [Compound 9], the IC50 is more than 10 µM at BCL9/β-catenin (setting [3]), 10 to 20 µM on BCL9/β-catenin (setting [2]), 10 to 50 µM with HCT116 cells and 10 to 50 µM in the assay with Human AXIN2.
In the case of `CC(C)(Oc1ccc(Cl)c(N2CCC[C@@H](C(=O)N(Cc3ccc(C4=CCCCC4)cc3)C3CC3)C2)c1)C(=O)N1CCNCC1` [Compound 10, (3R)-1-(2-chloro-5-{[2-methyl-1-oxo-1-(piperazin-1-yl)propan-2-yl]oxy}phenyl)-N-{[4-(cyclohex-1-en-1-yl)phenyl]methyl}-N-cyclopropylpiperidine-3-carboxamide], the IC50 at BCL9/β-catenin (setting [3]) was 2.7 µM; on BCL9/β-catenin (setting [2]) it was 2.7 µM; in the assay with HCT116 cells, 10 to 20 µM; in the assay with Human AXIN2, 10 to 20 µM.
With `CC(C)(Oc1ccc(Cl)c(N2CCC[C@@H](C(=O)N(Cc3ccc(-c4c[nH]c5ncccc45)cc3)C3CC3)C2)c1)C(=O)N1CCNCC1` [Compound 11, (3R)-1-(2-chloro-5-{[2-methyl-1-oxo-1-(piperazin-1-yl)propan-2-yl]oxy}phenyl)-N-cyclopropyl-N-[(4-{1H-pyrrolo[2,3-b]pyridin-3-yl}phenyl)methyl]piperidine-3-carboxamide], the IC50 on BCL9/β-catenin (setting [3]) was 2.44 µM; on BCL9/β-catenin (setting [2]) it was 2.44 µM; with HCT116 cells, 10 to 20 µM; with Human AXIN2 it was 10 to 20 µM.
With `CC(C)(Oc1cccc(N2CCC[C@@H](C(=O)N(Cc3ccc(-c4cn[nH]c4)c(Cl)c3)C3CC3)C2)c1)C(=O)N1CCNCC1` [Compound 12, (3R)-N-{[3-chloro-4-(1H-pyrazol-4-yl)phenyl]methyl}-N-cyclopropyl-1-(3-{[2-methyl-1-oxo-1-(piperazin-1-yl)propan-2-yl]oxy}phenyl)piperidine-3-carboxamide], the IC50 on BCL9/β-catenin (setting [3]) is more than 10 µM; at BCL9/β-catenin (setting [2]), 10 to 20 µM; in the assay on HCT116 cells, 10 to 50 µM; with Human AXIN2, 10 to 20 µM.
In the case of `CC(C)(Oc1cccc(N2CCC[C@@H](C(=O)N(Cc3ccc(C4=CCCCC4)c(Cl)c3)C3CC3)C2)c1)C(=O)N1CCNCC1` [Compound 13, (3R)-N-{[3-chloro-4-(cyclohex-1-en-1-yl)phenyl]methyl}-N-cyclopropyl-1-(3-{[2-methyl-1-oxo-1-(piperazin-1-yl)propan-2-yl]oxy}phenyl)piperidine-3-carboxamide], the IC50 at BCL9/β-catenin (setting [2]), with HCT116 cells and in the assay on Human AXIN2 was 10 to 50 µM throughout.
